Measurements from paper PMC5605686, “Ang-(1-7) is an endogenous β-arrestin-biased agonist of the AT1 receptor with protective action in cardiac hypertrophy” (Scientific Reports, 2017).
Read-outs that look alike come from different tables or passages of the source.

Legend:
[1] = system: isoproterenol-induced cardiac hypertrophy; assay: Isoproterenol-induced cardiac hypertrophy in rats (HW/BW ratio, left ventricular wall thickness); type: in vivo, Wistar rats; conditions: 7 days
Procedure: (§1) The isoproterenol-induced cardiac hypertrophy experimental model was chosen aiming to avoid any involvement of the RAS, as it is known that other models such as pressure-overload, SHR, or mRen2 involve RAS components[50],[60],[61]. Cardiac hypertrophy was induced in male, 6 weeks-old Wistar rats by administration of Isoproterenol [(Iso) 2 mg/kg per day, i.p. diluted in saline, for 7 days]. All experimental protocols were performed in accordance with the Brazilian Council for Control of Animal Experimentation - “Conselho Nacional de Controle de Experimentação Animal” (CONCEA), Brazil; and approved by the Animal Ethical Committee from the Ribeirão Preto Medical School, University of São Paulo (CEUA).
(§2) Rats receiving Iso were randomly submitted to treatment for 7 days with either vehicle, Ang-(1-7) [24 μg/kg per hour, via ALZET® osmotic minipumps (Durect, Cupertino, CA, USA)], Ang-(1-7) plus Losartan (10 mg/kg per day orally), Ang-(1-7) plus A779 (744 μg/kg per day i.p.), or Ang-(1-7) plus Losartan plus A779 (same doses as described). Doses and administration methods of drugs were based in previously published literature[62]–[66].
Cardiac hypertrophy was confirmed by cardiac mass and histomorphometric analyses. To determine cardiac mass, hearts were removed, dried and weighted. Heart weight (HW) was normalized by the body weight (BW) (HW/BW*1000). For histomorphometric analysis, hearts were cut transversely, fixed in paraformaldehyde (4%) for 24 hours, and kept in ethanol (70%) until dehydration, which consisted in sequential washes with 70, 80, 90 and 100% ethanol. Samples were cleared in xylene and embedded in paraffin. Transversal sections (6 µm) were obtained from the cardiac samples at intervals of 40 µm and stained with hematoxylin and eosin. Images were captured using an Olympus BK 50 microscope (Olympus Corporation of the Americas, Center Valley, PA, USA) equipped with a SPOT RT3 digital camera (Diagnostic Instruments, Inc., Sterling Heights, MI, USA) and measured with ImageJ software (NIH, USA).

AT1R [2] = target: T1, AT1R (Homo sapiens, UniProt P30556); assay: Competition binding assay against [3H]AngII in whole HEK293T cells transiently expressing the AT1R
T1 construct: expressed in transfected cells; host or cells: HEK293T
T1 sequence (P30556 1-359): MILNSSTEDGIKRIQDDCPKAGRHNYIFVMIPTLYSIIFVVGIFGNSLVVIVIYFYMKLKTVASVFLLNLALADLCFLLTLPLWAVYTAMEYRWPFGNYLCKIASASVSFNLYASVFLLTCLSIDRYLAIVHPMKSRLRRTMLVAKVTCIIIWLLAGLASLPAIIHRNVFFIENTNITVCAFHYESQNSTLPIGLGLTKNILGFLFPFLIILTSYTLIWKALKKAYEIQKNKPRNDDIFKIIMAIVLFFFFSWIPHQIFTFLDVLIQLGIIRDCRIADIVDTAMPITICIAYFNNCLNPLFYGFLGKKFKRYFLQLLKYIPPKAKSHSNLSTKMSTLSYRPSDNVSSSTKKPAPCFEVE
Procedure: (§3) HEK293T cells were cultured in DMEM supplemented with 10% heat-inactivated fetal bovine serum and 100 U/mL penicillin/streptomycin at 37 °C under 5% CO2. Cells were seeded in 100-mm dishes and 48 hours before the experiments, transiently transfected with the AT1R (alone or in combination with BRET-based biosensors). Transient transfections were performed using 25 kDa linear polyethylenimine (PEI – Polysciences, Warrington, PA, USA) at a ratio of 3:1 PEI/DNA. The total amount of transfected DNA was kept constant (10 μg/dish) by the addition of salmon sperm DNA.
Binding assays were performed in whole HEK293T cells at 48 hours after transfection. Twenty-four hours before the experiment, transfected cells were transferred to 24-well plates, treated with poly-L-lysine, and then incubated overnight at 37 °C, in a 5% CO2 environment. […] Samples were collected and mixed with 3 mL of scintillation liquid, and radioactivity was measured using a Liquid Scintillation Counter (Packard Tri-Carb 2100TR – PerkinElmer).

AT1R [3] = target: T1, AT1R; assay: BRET-based biosensor assay of Gq activation (Gαq-RLucII / Gγ1-GFP10) in HEK293T cells expressing AT1R; type: cell-based
Procedure: as §3
(§4) HEK293T cells transiently expressing the AT1R (or AT1R-GFP) and BRET-based biosensors (Gαq-RLucII or Gαi3-RLucII, Gβ1 and Gγ1-GFP10; RLucII-β-arr1-GFP10; RLucII-β-arr2-GFP10; β-arr1-RLucII; β-arr2-RLucII) were washed once with PBS, detached, and seeded in 96-well white plates (OptiPlate – PerkinElmer, Waltham, MA, USA). Following agonist stimulation, cells were incubated at 37 °C and the luciferase substrate (coelenterazine H for BRET1 or coelenterazine 400a for BRET2 – Biotium, Hayward, CA, USA) was added 5 min before reading BRET in a Victor^TM X Light Luminescence microplate reader (PerkinElmer) equipped with different donor/acceptor emission filter sets. […]

AT1R [4] = target: T1, AT1R; assay: Intracellular calcium mobilization assay (FLIPR Calcium 5) in HEK293T cells expressing AT1R; type: cell-based
Procedure: Cells were seeded in 100-mm dishes and 48 hours before the experiments, transiently transfected with the AT1R (alone or in combination with BRET-based biosensors). Transient transfections were performed using 25 kDa linear polyethylenimine (PEI – Polysciences, Warrington, PA, USA) at a ratio of 3:1 PEI/DNA. The total amount of transfected DNA was kept constant (10 μg/dish) by the addition of salmon sperm DNA. Twenty-four hours after transfection, HEK293T cells were washed once with PBS, detached, and seeded in 96-well clear-bottom black plates (Cellstar – Greiner Bio-One, Monroe, NC, USA) precoated with poly-L-lysine (Sigma-Aldrich, St. Louis, MO, USA). Cells were cultured in supplemented DMEM without phenol red (Gibco) at a density of 50,000 cells/well for an additional 24-hour period. […] To provide a baseline level, fluorescence was recorded every 2 seconds during 16 seconds. Following agonist stimulation, fluorescence continued to be recorded every 2 seconds for 90 seconds.

AT1R [5] = target: T1, AT1R; assay: BRET-based biosensor assay of Gi3 activation in HEK293T cells expressing AT1R; type: cell-based
Procedure: as §3, §4

AT1R [6] = assay: BRET assay of β-arrestin 1 recruitment to AT1R-GFP (β-arr1-RLucII); type: cell-based; conditions: for β-arr1 recruitment Emax (%): percentage of the maximum values obtained for AngII
Procedure: as §3
(§5) HEK293T cells transiently expressing the AT1R (or AT1R-GFP) and BRET-based biosensors (Gαq-RLucII or Gαi3-RLucII, Gβ1 and Gγ1-GFP10; RLucII-β-arr1-GFP10; RLucII-β-arr2-GFP10; β-arr1-RLucII; β-arr2-RLucII) were washed once with PBS, detached, and seeded in 96-well white plates (OptiPlate – PerkinElmer, Waltham, MA, USA). Following agonist stimulation, cells were incubated at 37 °C and the luciferase substrate (coelenterazine H for BRET1 or coelenterazine 400a for BRET2 – Biotium, Hayward, CA, USA) was added 5 min before reading BRET in a Victor^TM X Light Luminescence microplate reader (PerkinElmer) equipped with different donor/acceptor emission filter sets. The BRET signal was determined as the ratio of light emitted by fluorescently-labeled biosensors, detected with energy acceptor filters (530 ± 20 nm for BRET1 or 515 ± 20 nm for BRET2), and light emitted by RLucII-tagged biosensors, detected with energy donor filters (480 ± 20 nm for BRET[1] or 410 ± 40 nm for BRET2). The specific BRET signal was defined as the difference between the total BRET signals and the one obtained with RLucII alone.

AT1R [7] = assay: BRET assay of β-arrestin 2 recruitment to AT1R-GFP (β-arr2-RLucII); type: cell-based; conditions: for β-arr2 recruitment Emax (%): percentage of the maximum values obtained for AngII
Procedure: as §3, §5

AT1R [8] = target: T1, AT1R; assay: Intramolecular BRET assay of β-arrestin 1 conformational changes (RLucII-β-arr1-GFP10); type: cell-based
Procedure: (§6) Receptor promoted activation of β-arrestin results in a conformational rearrangement that can be monitored by BRET-based double brilliance biosensors assessing changes in BRET between RLucII and GFP10 fused respectively to the N- and C-termini of β-arrestins[35]–[37]. Therefore, to assess whether the recruitment of β-arrestins to the AT1R by Ang-(1-7) leads to activation, we monitored the agonist-promoted change in the intramolecular BRET.
(§7) HEK293T cells were cultured in DMEM supplemented with 10% heat-inactivated fetal bovine serum and 100 U/mL penicillin/streptomycin at 37 °C under 5% CO2. […]
as §4

AT1R [9] = target: T1, AT1R; assay: Intramolecular BRET assay of β-arrestin 2 conformational changes (RLucII-β-arr2-GFP10); type: cell-based
Procedure: as §6, §7, §4

AT1R [10] = target: T1, AT1R; assay: ERK1/2 phosphorylation by Western blotting in cells transiently expressing the AT1R; type: cell-based; conditions: 1 μM, 2-30 minutes, compared to AngII
Procedure: Cells transiently expressing the AT1R were seeded on 6-well plates in fully supplemented DMEM and kept at 37 °C. […] Cells were lysed with lysis buffer consisting of 10 mM Tris-HCl, pH 7.5, 150 mM NaCl, 1 mM EDTA, 1mM EGTA, 0.1% SDS, 1% Nonidet P-40 and the following protease inhibitors: 2 mM PMSF, 100 µg/mL SBTI, 10 µg/mL leupeptin, 100 µg/mL aprotinin, 10 mM benzamidin and 2 mM sodium orthovanadate. Following homogenization at 4 °C, during 30 minutes, cellular lysates were centrifuged for 15 minutes (18,000 × g) at 4 °C and total protein from the supernatants was quantified by the Bradford method (Bio-Rad, Hercules, CA). After that, 50 µg of total protein were resolved in SDS-PAGE, transferred to nitrocellulose membranes and Western blotting was performed against total ERK (tERK) and phosphorylated ERK (pERK) (both antibodies from Santa Cruz Biotechnology, Santa Cruz, CA, USA; and molecular size markers from ThermoFisher Scientific, Catalog Number 26610). Blots were captured with ImageQuant 350 (GE Healthcare, Piscataway, NJ, USA). Densitometric values obtained after analyses with ImageJ program (http://rsb.info.nhi.gov/ij/) were used to calculate a ratio pERK/tERK, and corresponding results were plotted using GraphPad software (GraphPad, San Diego, CA) as fold of increase over the basal value obtained with vehicle-treated control.

[11] = system: isoproterenol-induced cardiac hypertrophy; assay: End-diastolic pressure (EDP) in rats with isoproterenol-induced cardiac hypertrophy; type: in vivo, Wistar rats; conditions: 24 μg/kg per hour, osmotic mini-pump, 7 days, concomitantly with isoproterenol
Procedure: as §1
as §2, with “Doses and administration methods of drugs were based in previously published literature[62]–[66].” left out
Rats were anesthetized with isoflurane (5% for induction and 2–2.5% to maintain anesthesia). […] After stabilization, signals were continuously recorded using a pressure-volume conductance system (MPVS, Millar Instruments) connected to a Power Lab/4SP (ADI Instruments, Sydney, NSW, Australia) feeding the digital signal to an […].

[12] = target: T2, angiotensin II type 1 receptor (UniProt P30556 1-359); assay: cell-based or functional assay
T2 sequence (looked up): T1 sequence (P30556 1-359)

AT1R-GFP = target: T3, AT1R-GFP (UniProt P30556 1-359); assay: cell-based or functional assay
T3 sequence (looked up): T1 sequence (P30556 1-359)

[13] = target: T2, angiotensin II type 1 receptor; assay: radioligand binding; competition against 0.5 nM [^3H]AngII on whole HEK293T cells transiently expressing AT1R; 24 h at 4 °C; 25 mM Tris-HCl pH 7.4, 5 mM MgCl2, 0.1% BSA, 100 μg/mL bacitracin; conditions: one partner purified
[14] = 24 μg/kg per hour, osmotic mini-pump, concomitantly with isoproterenol

With `CCCCc1nc(Cl)c(CO)n1Cc1ccc(-c2ccccc2-c2nn[nH]n2)cc1` [Losartan, reference compound] the “blockade of the effect of Ang-(1-7) on the cardiovascular parameters (HW/BW, wall thickness, EDP)” value ([1]; co-treatment with Ang-(1-7), 10 mg/kg per day orally) was “did not prevent the effect of Ang-(1-7)”.

`CC[C@H](C)[C@H](NC(=O)[C@H](Cc1ccc(O)cc1)NC(=O)[C@@H](NC(=O)[C@H](CCCNC(=N)N)NC(=O)[C@@H](N)CC(=O)O)C(C)C)C(=O)N[C@@H](Cc1c[nH]cn1)C(=O)N1CCC[C@H]1C(=O)O` [Ang-(1-7), Asp-Arg-Val-Tyr-Ile-His-Pro] showed a Ki (AT1R [2]; competition against 0.5 nM [3H]AngII, HEK293T cells expressing AT1R, mean ± SEM, read-out: Binding pKi (converted)) of 219 nM, a Ki (AT1R [2]; competition binding against [3H]AngII, read-out: affinity for the AT1R) of ~200 nM and an Emax (AT1R [3]; HEK-293T) of 12.8%. The “Gq activation (separation of Gαq-RLucII from Gγ1-GFP10), in words” value (AT1R [3]; any of the concentrations tested, HEK293T cells expressing AT1R) was “did not promote the separation of Gαq-RLucII from Gγ1-GFP10”, the Emax (AT1R [4]; HEK-293T, read-out: Ca2+ mobilization Emax (%)) was 24.8% and the “intracellular Ca2+ mobilization, in words” value (AT1R [4]; concentration-response curve, HEK293T cells expressing AT1R) was “only a weak increase in intracellular Ca^2+ levels”. For the same molecule, the “Gi3 activation, in words” value (AT1R [5]) was “did not trigger Gi3 activation”, the “β-arr1 recruitment pEC50” value (AT1R [6]; BRET, mean ± SEM) was 6.38 ± 0.14 and the “β-arr1 recruitment Emax (%)” value (AT1R [6]) was 67.8%. The “β-arr1 recruitment Emax (%)” value (AT1R [6]; listed as Ang1-7) was ~70%, the “β-arr2 recruitment pEC50” value (AT1R [7]; BRET, mean ± SEM) was 6.56 ± 0.09 and the “β-arr2 recruitment Emax (%)” value (AT1R [7]) was 87.7%. The “β-arr2 recruitment Emax (%)” value (AT1R [7]; listed as Ang1-7) was ~90%, the EC50 (AT1R [8]; intramolecular BRET, mean ± SEM, read-out: β-arr1 conf. changes pEC50 (converted)) was 245 nM and the Emax (AT1R [8]; read-out: β-arr1 conf. changes Emax (%)) was 69.1%. The EC50 (AT1R [9]; intramolecular BRET, mean ± SEM, read-out: β-arr2 conf. changes pEC50 (converted)) was 1380 nM, the Emax (AT1R [9]; read-out: β-arr2 conf. changes Emax (%)) was 64.4% and the ERK1/2 phosphorylation (AT1R [10]) was “partial agonist resulting in lower and more transient activation”. For the same molecule, the “cardiac hypertrophy (left ventricular wall thickness)” value [1, 14] was “partially blocked the development of cardiac hypertrophy”, the “heart weight/body weight (HW/BW) ratio” value [1, 14] was “partially blocked” and the “end-diastolic pressure (EDP)” value [11] was “completely prevented the increase in EDP”.

B1: angiotensin-(1-7) (peptide)
peptide: DRVYIHP
notes: heptapeptide angiotensin-(1-7), cut from AngII by ACE2 or from AngI by endopeptidases; printed in three-letter code; also called Ang-(1-7); Ang1-7
With B1 the “β-arrestin 1 conformational change (intramolecular BRET, RLucII-β-arr1-GFP10) in HEK293T cells expressing AT1R, pEC50” value [12] was 6.61, the “recruitment of β-arr1-RLucII to AT1R-GFP (BRET), pEC50 of the agonist” value (AT1R-GFP) was 6.38 and the pKi [13] was 6.66.
